Holding throughout (format): cell-based
One assay deals with T1, human NaV1.3 channels (Homo sapiens, UniProt Q9NY46).
T1 construct: expressed in transfected cells; host or cells: HEK293
As to the kind of experiment: FRET assay, HEK293 cells expressing human NaV1.3 channels. The conditions noted are these: read-out: activities against Nav1.3. Here is the method: (§1) The ability of the pyrrolopyridinone derivatives of the formula (I) to inhibit the NaV1.3, Nav1.7 and Nav1.5 channels is measured by Fluorescence Resonance Energy Transfer (FRET) assay and electrophysiology assay described below.
(§2) This screen is used to determine the effects of compounds on human NaV1.3, human Nav1.7, and human Nav1.5 channels, utilising electrical field stimulation (EFS) system in 96-well plate format on FDSS (Hamamatsu Photonics) platform. The change of membrane potential is monitored with FRET dye pair, oxonol (DiSBAC2(3)) and coumarin (CC2-DMPE).
(§3) Each HEK293 cells expressing human NaV1.3 channels and HEK293 cells expressing human NaV1.5 channels are grown in T225 flasks, in a 5% CO2 humidified incubator to about 80% confluence. Media composition consists of Dulbecco's Modified Eagle Medium (high glucose), 10% FCS, 100 units/mL penicillin, 100 microgram/mL streptomycin and 500 microgram/mL Geneticin™. […]
(§4) The data are analyzed and reported as normalized ratios of intensities measured at […]. […]
(§5) This analysis is performed using a computerized specific program designed for FDSS generated data. Fluorescence ratio values are plotted using XLfit™ to determine an IC50 value for each compound.

A further assay addresses T2, human Nav1.7 channels (Homo sapiens, UniProt Q15858).
T2 construct: expressed in transfected cells; host or cells: CHO
In words: FRET assay, CHO cells expressing human NaV1.7 channels. The note with it: read-out: activities against Nav1.7. Here is the method:
as §1, §2
CHO cells expressing human NaV1.7 channels are grown in T225 flasks, in a 5% CO2 humidified incubator to about 80% confluence. Media composition consists of HAM/F12 with GlutaMAX™ I, 10% FCS, 100 units/mL penicillin and 100 microgram/mL hygromycin. […]
as §4, §5

For a further assay, the target named is T3, human Nav1.5 channels (Homo sapiens, UniProt Q14524).
T3 construct: expressed in transfected cells; host or cells: HEK293
As to the kind of experiment: FRET assay, HEK293 cells expressing human NaV1.5 channels. The conditions noted are these: read-out: activities against Nav1.5. Here is the method:
as §1, §2, §3, §4, §5

The next assay addresses T4, human Nav1.3 (hSCN3A) (Homo sapiens, UniProt Q9NY46).
T4 construct: expressed in transfected cells; host or cells: HEK293
As to the kind of experiment: Electrophysiology assay (whole cell patch clamp), human Nav1.3 (hSCN3A) expressing HEK293 cells. The conditions noted are these: dissociation constant for the inactivated state (Kinact); read-out: activities (Ki) against NaV1.3. Here is the method:
(§6) Whole cell patch clamp recording is used to assess the efficacy or selectivity of Na channel blocker on human Nav1.3 (hSCN3A) expressing HEK293 cells or human Nav1.7 (hSCN9A) expressing CHO cells. Human Nav1.3 expressing HEK293 cells are grown in growth media which contain: Dulbecco's […] (DMEM), 10% heat-inactivated fetal bovine serum (FBS) (Hyclone Laboratories Inc), 100 microgram/mL penicillin/100 U/mL streptomycin, 150 microgram/mL Zeocin™, and 3 microgram/mL Geneticin. Human […], expressing CHO cells are grown in growth media which contain: HAM/F-12, 9% heat-inactivated FBS (Hyclone Laboratories Inc), and 100 microgram/mL penicillin/100 U/mL streptomycin, and 100 microgram/mL hygromycin.
(§7) Na channel expressing cells are dissociated by 0.05 trypsin-EDTA, and then seeded on cover glass for 24 to 48 hr. […]
(§8) The normalized steady-state inactivation curve is constructed using 2 sec (for vehicle) or 60 sec (for drugs) conditioning pulse to different potentials followed immediately by the test pulse to −10 mV. […] The affinity of drugs to resting state of Na channels (Kresting or Kt) is assessed by 30 msec test pulse from a negative holding potential of −120 or −130 mV, where virtually all channels are in the resting state. Kr value is calculated by a conventional 1:1 binding model: Kresting(Kr)={[drug]Imax,drug/(Imax,control−Imax,drug)} [Math.2] […]
A general note: Patch clamp records ionic current or voltage across a cell membrane.

A further assay addresses T5, human Nav1.7 (hSCN9A) (Homo sapiens, UniProt Q15858).
T5 construct: expressed in transfected cells; host or cells: CHO
In words: Electrophysiology assay (whole cell patch clamp), human Nav1.7 (hSCN9A) expressing CHO cells. The conditions noted are these: dissociation constant for the inactivated state (Kinact); read-out: activities (Ki) against NaV1.7. Here is the method:
as §6, §7, §8

This is an account of results in patent US9187475B2, “Pyrrolopyridinone derivatives as TTX-S blockers” (RaQualia Pharma Inc., priority 2012, dated 2015).

T2 sequence (Q15858 whole entry): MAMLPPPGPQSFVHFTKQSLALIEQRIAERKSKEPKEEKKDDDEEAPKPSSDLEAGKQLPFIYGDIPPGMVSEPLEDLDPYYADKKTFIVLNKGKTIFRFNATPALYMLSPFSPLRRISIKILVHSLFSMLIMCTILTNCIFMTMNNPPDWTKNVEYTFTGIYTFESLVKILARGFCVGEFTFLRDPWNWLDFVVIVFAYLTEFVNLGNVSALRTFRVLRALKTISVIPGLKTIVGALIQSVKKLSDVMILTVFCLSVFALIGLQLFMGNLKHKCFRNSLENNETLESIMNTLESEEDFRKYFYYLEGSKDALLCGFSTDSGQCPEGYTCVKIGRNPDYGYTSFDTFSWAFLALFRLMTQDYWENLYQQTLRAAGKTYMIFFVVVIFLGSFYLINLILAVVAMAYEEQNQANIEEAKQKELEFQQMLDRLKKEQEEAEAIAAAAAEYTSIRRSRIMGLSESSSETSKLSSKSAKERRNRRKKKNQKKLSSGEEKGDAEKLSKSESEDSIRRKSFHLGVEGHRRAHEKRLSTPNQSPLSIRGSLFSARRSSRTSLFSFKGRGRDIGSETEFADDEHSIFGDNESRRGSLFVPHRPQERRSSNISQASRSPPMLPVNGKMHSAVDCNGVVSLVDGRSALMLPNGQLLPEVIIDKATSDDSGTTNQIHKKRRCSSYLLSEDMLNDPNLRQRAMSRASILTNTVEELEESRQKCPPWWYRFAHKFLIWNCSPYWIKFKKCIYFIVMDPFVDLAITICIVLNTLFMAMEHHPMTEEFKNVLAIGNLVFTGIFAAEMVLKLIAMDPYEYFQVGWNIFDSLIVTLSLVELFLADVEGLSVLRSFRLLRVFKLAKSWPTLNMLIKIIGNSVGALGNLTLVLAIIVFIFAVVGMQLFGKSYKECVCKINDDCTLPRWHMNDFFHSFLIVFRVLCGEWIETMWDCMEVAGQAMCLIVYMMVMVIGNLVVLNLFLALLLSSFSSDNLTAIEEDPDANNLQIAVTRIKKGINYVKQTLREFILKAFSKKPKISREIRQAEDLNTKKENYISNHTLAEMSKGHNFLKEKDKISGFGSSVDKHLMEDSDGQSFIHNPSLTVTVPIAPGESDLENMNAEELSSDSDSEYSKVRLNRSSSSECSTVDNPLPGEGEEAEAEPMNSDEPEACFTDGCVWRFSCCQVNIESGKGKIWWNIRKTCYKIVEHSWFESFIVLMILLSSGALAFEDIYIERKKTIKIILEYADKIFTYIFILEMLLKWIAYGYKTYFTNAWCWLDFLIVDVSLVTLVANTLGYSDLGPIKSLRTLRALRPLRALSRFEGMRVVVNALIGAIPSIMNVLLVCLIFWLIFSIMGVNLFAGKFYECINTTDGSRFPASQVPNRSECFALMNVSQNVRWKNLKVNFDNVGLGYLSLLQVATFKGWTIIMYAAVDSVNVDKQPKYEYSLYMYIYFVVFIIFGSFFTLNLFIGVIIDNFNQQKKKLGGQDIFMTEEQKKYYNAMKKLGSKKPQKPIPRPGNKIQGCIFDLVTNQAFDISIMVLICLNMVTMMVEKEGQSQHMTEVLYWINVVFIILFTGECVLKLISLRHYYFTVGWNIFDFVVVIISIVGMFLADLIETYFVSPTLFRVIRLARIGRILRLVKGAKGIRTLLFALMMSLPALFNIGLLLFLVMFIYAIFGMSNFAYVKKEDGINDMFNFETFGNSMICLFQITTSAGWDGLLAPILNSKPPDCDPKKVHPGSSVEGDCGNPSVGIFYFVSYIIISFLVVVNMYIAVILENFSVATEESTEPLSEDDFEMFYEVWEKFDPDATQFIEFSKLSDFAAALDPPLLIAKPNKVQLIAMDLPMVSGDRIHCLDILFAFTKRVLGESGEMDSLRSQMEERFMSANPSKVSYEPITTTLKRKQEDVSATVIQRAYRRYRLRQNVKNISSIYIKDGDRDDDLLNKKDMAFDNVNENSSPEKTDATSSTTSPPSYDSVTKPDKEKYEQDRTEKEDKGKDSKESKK
T5 sequence (Q15858 whole entry): as above
T4 sequence (Q9NY46 whole entry): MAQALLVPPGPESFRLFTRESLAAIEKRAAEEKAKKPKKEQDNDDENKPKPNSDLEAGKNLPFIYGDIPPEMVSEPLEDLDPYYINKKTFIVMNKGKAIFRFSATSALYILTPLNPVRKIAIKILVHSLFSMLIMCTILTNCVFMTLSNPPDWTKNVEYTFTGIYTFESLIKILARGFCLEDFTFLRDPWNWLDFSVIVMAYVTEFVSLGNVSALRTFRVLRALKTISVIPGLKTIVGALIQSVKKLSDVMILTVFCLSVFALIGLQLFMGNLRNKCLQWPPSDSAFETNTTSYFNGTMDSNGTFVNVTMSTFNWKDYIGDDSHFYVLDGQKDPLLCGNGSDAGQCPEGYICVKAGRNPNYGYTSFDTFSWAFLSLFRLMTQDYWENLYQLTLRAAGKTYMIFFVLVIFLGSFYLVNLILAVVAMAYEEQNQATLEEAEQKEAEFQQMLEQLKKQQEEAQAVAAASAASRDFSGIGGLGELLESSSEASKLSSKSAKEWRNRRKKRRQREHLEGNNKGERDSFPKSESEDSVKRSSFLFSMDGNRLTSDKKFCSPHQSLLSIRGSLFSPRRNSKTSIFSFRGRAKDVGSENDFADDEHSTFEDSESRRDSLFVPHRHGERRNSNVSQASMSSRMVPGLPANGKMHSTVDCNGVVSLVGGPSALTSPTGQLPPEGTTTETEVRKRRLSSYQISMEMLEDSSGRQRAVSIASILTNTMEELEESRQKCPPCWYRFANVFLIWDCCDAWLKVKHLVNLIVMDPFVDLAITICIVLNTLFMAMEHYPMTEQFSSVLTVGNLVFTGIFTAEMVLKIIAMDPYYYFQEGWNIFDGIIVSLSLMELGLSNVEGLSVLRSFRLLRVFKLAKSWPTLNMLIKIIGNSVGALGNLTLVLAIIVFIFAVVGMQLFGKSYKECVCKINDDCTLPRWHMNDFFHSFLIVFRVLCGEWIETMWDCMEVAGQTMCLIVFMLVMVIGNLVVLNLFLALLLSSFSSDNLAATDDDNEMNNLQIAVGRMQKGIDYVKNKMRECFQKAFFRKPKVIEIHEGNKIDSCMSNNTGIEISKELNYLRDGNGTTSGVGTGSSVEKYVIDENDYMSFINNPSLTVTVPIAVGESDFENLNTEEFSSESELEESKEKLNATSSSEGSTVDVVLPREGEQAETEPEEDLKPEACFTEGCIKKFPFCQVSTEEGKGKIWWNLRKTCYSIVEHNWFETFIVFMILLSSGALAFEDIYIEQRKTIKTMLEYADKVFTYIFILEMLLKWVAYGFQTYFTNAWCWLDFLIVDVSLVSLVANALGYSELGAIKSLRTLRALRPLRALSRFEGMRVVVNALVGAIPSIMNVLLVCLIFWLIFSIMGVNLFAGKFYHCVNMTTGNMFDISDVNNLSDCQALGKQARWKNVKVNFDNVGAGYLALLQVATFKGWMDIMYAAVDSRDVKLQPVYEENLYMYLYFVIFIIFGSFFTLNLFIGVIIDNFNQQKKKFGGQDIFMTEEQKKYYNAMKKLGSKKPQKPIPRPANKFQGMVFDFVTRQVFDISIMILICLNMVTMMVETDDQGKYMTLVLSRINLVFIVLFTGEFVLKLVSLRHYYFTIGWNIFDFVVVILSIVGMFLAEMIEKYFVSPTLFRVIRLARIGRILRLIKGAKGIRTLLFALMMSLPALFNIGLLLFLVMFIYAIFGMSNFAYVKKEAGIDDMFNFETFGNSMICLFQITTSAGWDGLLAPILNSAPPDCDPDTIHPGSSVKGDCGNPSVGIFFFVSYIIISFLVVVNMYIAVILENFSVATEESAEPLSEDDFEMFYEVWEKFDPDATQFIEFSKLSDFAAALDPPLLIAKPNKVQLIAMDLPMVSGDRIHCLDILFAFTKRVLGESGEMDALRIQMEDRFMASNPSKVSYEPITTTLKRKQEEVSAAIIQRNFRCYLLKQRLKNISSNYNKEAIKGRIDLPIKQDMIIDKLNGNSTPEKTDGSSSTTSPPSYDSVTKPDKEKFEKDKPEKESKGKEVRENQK
T1 sequence (Q9NY46 whole entry): as above

For the compound `CC(=O)Nc1nccc2c1CN(C(C)c1cnc(OCC(F)(F)F)c(C)c1)C2=O` (single isomer, unassigned) [Example 2, N-(2-(1-(5-methyl-6-(2,2,2-trifluoroethoxy)pyridin-3-yl)ethyl)-1-oxo-2,3-dihydro-1H-pyrrolo[3,4-c]pyridin-4-yl)acetamide], the IC50 on human NaV1.3 channels was 440 nM; on human Nav1.7 channels it was 1100 nM; on human Nav1.5 channels, over 30000 nM.

Consider `Cc1cc(C(C)N2Cc3c(ccnc3NC(=O)C(C)C)C2=O)cnc1OCC(F)(F)F` (single isomer, unassigned) [Example 3, N-(2-(1-(5-methyl-6-(2,2,2-trifluoroethoxy)pyridin-3-yl)ethyl)-1-oxo-2,3-dihydro-1H-pyrrolo[3,4-c]pyridin-4-yl)isobutyramide], for which the Ki on human Nav1.3 (hSCN3A) came out at 140 nM; at human Nav1.7 (hSCN9A), 91 nM.
